# Measured values from doi:10.1101/2024.04.24.590935, “Measuring PETase enzyme kinetics by single-molecule microscopy” (bioRxiv, 2024).
# Tests used:
# [1] = target: T1, PETase (wild-type PETase, IsPETase) (Pseudideonella sakaiensis, UniProt A0A0K8P6T7, W159H/S238F); test: single-molecule TIRF of Qdot655-labelled PETase on PET film, competition by pNPA; assay type: binding; settings: 4 mM pNPA; competitive with PET; also model soluble substrate; 50 mM sodium phosphate, 100 mM NaCl, pH 7.4, 22 °C
# T1 construct: gene ISF6_4831
# T1 sequence (A0A0K8P6T7 28-290 W159H/S238F): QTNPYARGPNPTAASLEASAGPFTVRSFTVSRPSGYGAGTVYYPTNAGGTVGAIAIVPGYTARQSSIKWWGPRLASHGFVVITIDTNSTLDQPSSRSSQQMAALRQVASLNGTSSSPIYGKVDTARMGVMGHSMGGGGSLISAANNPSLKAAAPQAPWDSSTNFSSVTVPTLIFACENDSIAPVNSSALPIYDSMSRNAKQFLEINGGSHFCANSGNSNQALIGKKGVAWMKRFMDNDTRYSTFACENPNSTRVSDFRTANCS
# [2] = target: T2, PETase (wild-type PETase, IsPETase) (Pseudideonella sakaiensis, UniProt A0A0K8P6T7); test: as above; assay type: binding; settings: 4 mM pNPA; competitive with PET; also model soluble substrate; 50 mM sodium phosphate, 100 mM NaCl, pH 7.4, 22 °C
# T2 construct: gene ISF6_4831
# T2 sequence (A0A0K8P6T7 28-290): as the sequence (A0A0K8P6T7 28-290 W159H/S238F) above, with H132W, F211S counted along it
structure (smiles),measurement,setting,value
CC(=O)Oc1ccc([N+](=O)[O-])cc1 [4-Nitrophenyl acetate],"single-molecule TIRF of Qdot655-labelled PETase on PET film, competition by pNPA",[1],pNPA strongly diminished the landing rate of the wild-type and hyperactive mutant
same,"single-molecule TIRF of Qdot655-labelled PETase on PET film, competition by pNPA",[2],pNPA reduced the binding duration of wild-type PETase and the hyperactive variant
